These results are taken from patent US20070225339A1, “Compositions and methods for treating rheumatoid arthritis” (priority 2006, published 2007).

The test system of data set [1] is patients with RA. The settings on record: etanercept by injection in combination with methotrexate; cited from earlier work.
In data set [2] the test system is subjects with moderate or severe RA. The experiment in a line: Safety evaluations in the twelve-week RA study (adverse events, laboratory, Holter, ECG). The settings on record: for Mean increase in QTcF: end of treatment, baseline approximately 400 msec, placebo −0.6 msec. Type of data set: in vivo, human. Here is the method: VX-702 was examined in a randomized, placebo-controlled, multiple-dose, blinded, dose escalation study in 315 subjects with moderate or severe RA. Subjects were divided into 3 approximately equal-sized groups of 100-105 subjects each. In one group, subjects received 5 mg VX-702 once daily or 2.5 mg VX-702 twice daily (total 5 mg/day) for twelve weeks. Another group received 10 mg VX-702 once daily for twelve weeks. Another group subjects received placebo once daily for twelve weeks. Safety evaluations of subjects in the study were also conducted. These included physical examinations, including vital signs measurements (including blood pressure, heart rate, respiration rate, and temperature); clinical laboratory assessments (hematology, chemistry, and urinalysis testing); creatinine clearance; adverse events; Holter monitoring and electrocardiogram (ECG) (12-lead). Responses to treatment were evaluated by changes in ACR (e.g., ACR20) or EULAR criteria. Responses to treatment were measured at Weeks 2, 4, 6, 8, 10 and 12. Safety evaluations were also conducted at these time points. Holter monitoring and ECG were not performed at every time point. Four weeks after completion of the study, responses to treatment and safety evaluations were conducted on subjects.

Data set [3] concerns subjects with unstable angina pectoris (UAP). The experiment in a line: Phase 2a study, safety and tolerability. Type of data set: in vivo, human. The settings on record: up to 40 mg/day for 5 days. As to the method:
(§1) Five Phase 1 studies of VX-702 in healthy subjects and one Phase 2a study evaluating the safety and tolerability of VX-702 in subjects with unstable angina pectoris (UAP) who were scheduled for percutaneous coronary intervention with or without stenting were performed. Multiple dose studies of VX-702 were conducted for up to 28 days.

A further data set is described as follows: Oral bioavailability. The settings on record: in vivo.
Data set [4] relates to subjects with moderate or severe RA. Description: Randomized, placebo-controlled, blinded twelve-week study in RA: responses to treatment (ACR, EULAR, DAS28). Particulars: for ACR 20 Response / EULAR Response (moderate or good) / Improvement from baseline in DAS28 / Mean reduction in morning stiffness / Percent Change in Swollen Joints / Percent Change in Tender Joints / Percent Improvement in DAS / Percent reduction in morning stiffness: End of Treatment (Week 12). The data set is classed as in vivo, human. As to the method: VX-702 was examined in a randomized, placebo-controlled, multiple-dose, blinded, dose escalation study in 315 subjects with moderate or severe RA.
Subjects were divided into 3 approximately equal-sized groups of 100-105 subjects each. In one group, subjects received 5 mg VX-702 once daily or 2.5 mg VX-702 twice daily (total 5 mg/day) for twelve weeks. Another group received 10 mg VX-702 once daily for twelve weeks. Another group subjects received placebo once daily for twelve weeks.
The subjects had to be between the ages of 18-75 years (inclusive) and have active RA of six months of duration or longer by the ACR revised criteria. The subjects had to have a C-reactive protein (CRP) serum levels of greater than 2 mg/dL at time of randomization, a swollen joint count of eight or greater (of 28) and tender joint count of 10 or greater (of 28). The subjects had to have had no prior treatment with Disease modifying anti-rheumatic drugs (DMARD) therapy or inadequate response to DMARD therapy. If a subject had received prior therapy with an antibody or binding protein to TNF (anti-TNF) or with recombinant IL-1 receptor antagonist (IL-1Ra), the subject may have discontinued treatment due to tolerability reasons but not have discontinued treatment because of an inadequate response. Subjects must also have discontinued DMARD therapy (except for sulfasalazine or hydroxychloroquine) for at least one month prior to randomization. Subjects could receive one NSAID and/or prednisone (≦10 mg/day) if they had been treated at a stable dose for at least one month prior to randomization.
Responses to treatment were evaluated by changes in ACR (e.g., ACR20) or EULAR criteria. Responses to treatment were measured at Weeks 2, 4, 6, 8, 10 and 12. Safety evaluations were also conducted at these time points. Holter monitoring and ECG were not performed at every time point. Four weeks after completion of the study, responses to treatment and safety evaluations were conducted on subjects.
ACR Preliminary Definition of Improvement in RA (ACR20):
Required: ≧20% improvement in tender joint count • ≧20% improvement in swollen joint count And, at least 20% improvement in 3 of the following 5: • Subject pain assessment • Subject global assessment • Physician global assessment • Subject self-assessed disability
Acute-phase reactant (CRP or ESR)
The ACR50 and ACR70 responses require ≧50% and ≧70% improvement, respectively, in the same criteria as described for the ACR20 response.
EULAR is described in Fransen et al., Clinical and Experimental Rheumatology 23 (Suppl. 39): S93-99, 2005, which is hereby incorporated by reference in its entirety. EULAR is based on the Disease Activity Score (DAS), a clinical index of RA disease activity that combines information from swollen joints, tender joints, the acute phase response and general health into one continuous measure of rheumatoid inflammation. DAS28 is an index similar to the original DAS, consisting of a 28 tender joint count (range 0-28), a 28 swollen joint count (range 0-28), erythrocyte sedimentation rate (ESR) and an optional general health assessment on a visual analogue scale (range 0-100).

In a further data set the test system is healthy subjects. The experiment in a line: Phase 1 studies, tolerability. Type of data set: in vivo, human. As to the method: as §1
Data set [5] relates to patients with RA. The settings on record: standard of care in patients with RA; cited from earlier work.

Entries after “also recorded” stand apart in the source; their conditions may differ.

With etanercept, the Clinical remission rate in the data set on patients with RA [1] is listed as 35%.
As for `NC(=O)c1ccc(N(C(N)=O)c2c(F)cccc2F)nc1-c1ccc(F)cc1F` [VX-702], the “Premature discontinuations for adverse events, patients” value in data set [2] (5 mg VX-702, twelve weeks) was 3%. Moreover, the “Mean increase in QTcF” value in data set [2] (5 mg group) came out at 3 ms. The “Premature discontinuations for adverse events, patients” value in data set [2] (10 mg VX-702, twelve weeks) is reported as 5%. The “Mean increase in QTcF” value in data set [2] (10 mg group) amounted to 6 ms. In data set [2] (5 or 10 mg/day, twelve weeks), the “Effects on laboratory parameters, including liver function tests” value is on record as “No clinically significant effects”; the “Severity of adverse events” value is reported as “generally mild to moderate; also recorded: generally rated mild or moderate”; the Tolerability entry is listed as “well tolerated”. Moreover, the “Holter monitoring: ventricular ectopic activity and arrhythmias versus placebo” value in data set [2] (24 to 72-hour continuous EKG, 6 times/patient) is given as “did not reveal an increased tendency for arrhythmias”. The “Skin disorders (rash, acne, itching), patients” value in data set [2] (VX-702-treated patients) is “approximately 9%”. Also, the “Isolated serious adverse events, patients” value in data set [2] (VX-702-treated patients (5 and 10 mg groups)) was 4-7%. In addition, in data set [2] (VX-702-treated patients, placebo 5%), the “Infections (upper respiratory infections, gastroenteritis, nasopharyngitis, etc), patients” value was determined as 10%. In data set [2] (VX-702-treated patients, placebo 6%), the “Gastrointestinal disorders (nausea, vomiting, diarrhea), patients” value is 8%. Besides, the “Patients with maximal increase in QTcF of >60 msec” value in data set [2] (at any point in the study) is “No patient”. The “Patients with ALT value above the upper limit of normal” value in data set [2] (at each on-treatment visit, placebo 1-2%) is listed as 2-4%. Also, in data set [2] (twelve weeks), the “Patients discontinued for elevations in liver function tests” value was “No patients” and the “Patients with ALT elevation to three times the upper limit of normal” value is on record as “No patient”. In addition, in data set [3], the “Severity of adverse events” value was “mild to moderate severity”. The Oral bioavailability result in the data set “Oral bioavailability” is “orally bioavailable”. Further, in data set [4] (5 mg VX-702 per day), the “ACR 20 Response” value was determined as 36%, the “EULAR Response (moderate or good)” value was 40%, the “Improvement from baseline in DAS28” value was −1.0 and the “Mean reduction in morning stiffness” value is -98 min. In addition, in data set [4] (5 mg VX-702 per day), the “Percent Change in Swollen Joints” value is recorded as −35%, the “Percent Change in Tender Joints” value was −28%, the “Percent Improvement in DAS” value is recorded as −15% and the “Percent reduction in morning stiffness” value is −21.6%. Also, the “EULAR Response (moderate or good)” value in data set [4] (5 mg VX-702 per day, listed as 702) came out at 40%. For the same compound, the “Symptoms of RA compared to placebo” value in data set [4] (5 mg or 10 mg once daily for twelve weeks, Week 12) is reported as “showed an improvement in their symptoms”. For the same compound, in data set [4] (10 mg VX-702 once daily), the “ACR 20 Response” value was 40%, the “EULAR Response (moderate or good)” value stood at 44%, the “Improvement from baseline in DAS28” value is listed as −1.2 and the “Mean reduction in morning stiffness” value was -82 min. In data set [4] (10 mg VX-702 once daily), the “Percent Change in Swollen Joints” value is given as −46%, the “Percent Change in Tender Joints” value is reported as −36%, the “Percent Improvement in DAS” value is on record as −18% and the “Percent reduction in morning stiffness” value is recorded as −2.7%. Also, the “ACR20 response rates, dose-response” value in data set [4] (placebo, 5 mg, 10 mg, Jonckheere-Terpstra test, p=0.02) is “dose-dependent statistically significant increase”. For the same compound, the “Severity of adverse events” value in the data set with healthy subjects (Phase 1, healthy subjects) is “mild or moderate severity”. Besides, the Tolerability entry in the data set on healthy subjects (dosages of up to 20 mg/day, multiple dose up to 28 days, healthy subjects) is reported as “moderately to well tolerated”.
For the compound `CN(Cc1cnc2nc(N)nc(N)c2n1)c1ccc(C(=O)N[C@@H](CCC(=O)O)C(=O)O)cc1` [methotrexate], the “Response (improvement) often observed” value with patients with RA [5] is “less than 50%”.
